The text below walks through data of article PMC12278462, “Site-selective arylations of nature-inspired flavonoids or steroidal phenols via C—H or O—H activation” (Journal of Enzyme Inhibition and Medicinal Chemistry, 2025).

Molecules are shown by their SMILES. Read-outs that look alike come from different tables or passages of the source. Where only a bound is given, the exact number is not on record here.

Assay [1] has as its system MCF-7. Put plainly: MTT antiproliferative assay, MCF-7. The format is cell-based, human. Conditions: for inhibition at 10 µM: MCF7, 10 µM; for inhibition at 30 µM: MCF7, 30 µM; for IC50: read-out: calculated IC50 MCF-7. As to the method: (§1) We evaluated the cytotoxic activity of the newly synthesised arylated compounds 13–17 by the MTT assay[37] on a panel of human adherent cancer cell lines. The panel included breast (MCF-7 and MDA MB-231) and cervical (HeLa, SiHa and C33A) cancer cell lines differing in receptorial or HPV status. Tumour selectivity was determined on the NIH/3T3 mouse fibroblast cell line.
(§2) Briefly, the panels of breast and cervical cancerous cell lines, differing by their receptorial and HPV status were used, precisely MCF-7 (ER, PR and HER2 positive) and MDA-MB-231 (TNBC) breast carcinoma and HeLa (HPV18+), SiHa (HPV16+), C33A (HPV-) cervical carcinoma cells. Non-cancerous NIH/3T3 mouse fibroblast cell line was used for selectivity study. MCF-7, MDA-MB-231, Hela and NIH/3T3 cell lines were purchased from ECACC (European Collection of Cell Cultures, Salisbury, UK), while SiHa and C33A from ATCC (American Tissue Culture Collection, LGC Standards GmbH, Wesel, Germany). Cells were maintained in Eagle's Minimum Essential Medium (EMEM, Capricorn Scientific GmbH, Ebsdorfergrund, Germany) supplemented with 10% heat-inactivated fetal bovine serum (FBS), 1% non-essential amino acids (NEAA), and 1% antibiotic-antimycotic mixture (penicillin–streptomycin). The cells were maintained at 37 °C in a humidified atmosphere containing 5% CO2.
(§3) For measurements cells were seeded for 96-well plates at a density of 5 000/well, except for C33A, which was seeded in 10 000cells for each well. After overnight standing cells were treated with 10 and 30 µM solutions for screening and increasing concentrations (0.1-30.0 µM) of the test compounds were used for concentration-response curves. After incubation for 72 hours under cell culturing condition 5 mg/ml MTT (3-(4,5-[…])-2,5-diphenyl-2H-tetrazolium bromide) solution was added for another 4 h. The precipitated formazan crystals were solubilized in DMSO and the absorbance was measured at 545 nm with a microplate reader (BMG Labtech, Ortenberg, Germany). Wells with untreated cells were utilized as control, and inhibition % were calculated by GraphPad Prism v 9.0 software (GraphPad Software, San Diego, CA, USA). If the growth-inhibition exceeded 70% at 30 µM concentration during the screening concentration-response curves were fitted and IC50 values were calculated by GraphPad Prism v 9.0. The experiments were performed with five parallel wells for each experimental condition and repeated at least twice.

The test system of assay [2] is C33A. Put plainly: MTT antiproliferative assay, C33A. It is filed as cell-based, human. Particulars: 72 h; for IC50: read-out: calculated IC50 C33A. The protocol:
as §1, §2, §3

Assay [3] has as its system HeLa. The assay can be described thus: MTT antiproliferative assay, HeLa. The format is cell-based, human. Conditions: 72 h; for IC50: read-out: calculated IC50 HeLa. The protocol: as §1, §2, §3
Assay [4] has as its system MDA-MB-231. The assay can be described thus: MTT antiproliferative assay, MDA-MB-231. It is filed as cell-based, human. Particulars: for inhibition at 10 µM: MDA-MB-231, 10 µM; for inhibition at 30 µM: MDA-MB-231, 30 µM; for IC50: read-out: calculated IC50 MDA-MB-231. The protocol:
as §1, §2, §3

Assay [5] deals with NIH/3T3 mouse fibroblast cell line. Put plainly: MTT assay, tumour selectivity on non-cancerous fibroblasts. The format is cell-based. Conditions: for inhibition at 10 µM: NIH3T3, 10 µM; for inhibition at 30 µM: NIH3T3, 30 µM; for IC50: read-out: calculated IC50 NIH/3T3. As to the method:
as §1, §2, §3

Assay [6] relates to SiHa. The assay can be described thus: MTT antiproliferative assay, SiHa. The format is cell-based, human. Particulars: 72 h; for IC50: read-out: calculated IC50 SiHa. As to the method: as §1, §2, §3
For assay [7], the target named is T1, 17β-HSD1 (Homo sapiens, UniProt P14061).
T1 sequence (P14061 1-328): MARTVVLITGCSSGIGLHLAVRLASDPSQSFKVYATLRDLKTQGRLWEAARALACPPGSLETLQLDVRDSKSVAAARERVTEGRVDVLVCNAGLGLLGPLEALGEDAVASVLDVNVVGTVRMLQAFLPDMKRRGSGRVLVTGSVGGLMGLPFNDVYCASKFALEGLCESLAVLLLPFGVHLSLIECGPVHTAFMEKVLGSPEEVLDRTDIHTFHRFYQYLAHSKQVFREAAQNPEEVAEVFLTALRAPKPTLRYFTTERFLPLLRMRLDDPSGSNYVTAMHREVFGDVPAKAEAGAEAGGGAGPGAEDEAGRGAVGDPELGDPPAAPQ
Put plainly: 17β-HSD1 enzymatic assay (E1 to E2, LC-MS/MS). The format is biochemical. Conditions: read-out: 17β-HSD1 Inhibition (% ± SD); for inhibition at 10 µM: 10 µM test concentration; for inhibition at 100 µM: 100 µM test concentration. The protocol:
The bacterial homogenate of E. coli overexpressing HSD17B1 was previously prepared as described in references ^S2,S3, and stored in aliquots at -80 °C. Before conducting experiments, aliquots were quickly thawed and diluted twice with 100 mM sodium phosphate buffer (pH 6.5; #14457, #1411007, Kemika), then kept on ice. The enzymatic assay was performed as described in ^S3. Briefly, a 1 mL enzymatic reaction mixture was prepared in 2 mL microcentrifuge tubes with the following components: 10 µL of the test inhibitor dissolved in dimethyl sulfoxide (DMSO; #276855, Sigma Aldrich) or 10 µL of DMSO for control samples, 5 µL of 14 µM substrate estrone (E1; CAS 53-16-7; #E2300-000, Steraloids), 10 µL of 10 mM NADPH (#AE14, Carl Roth) prepared in 100 mM sodium phosphate buffer, and 965 µL of 100 mM sodium phosphate buffer (pH 6.5). The reaction mixture was mixed thoroughly before adding 10 µL of bacterial homogenate. Immediately after addition, the tubes were transferred to an Eppendorf thermoshaker (#5382000031, Eppendorf) and incubated at 37 °C for 10 minutes. To stop the reaction, 60 µL of 1.26 M ascorbic acid (#A92902, Sigma Aldrich) in methanol (#34966, Honeywell/Riedel-de Haen) /acetic acid (#1.00063, Merck) (99:1, v/v) was added. The samples were then immediately processed using solid-phase extraction (SPE). The assay was repeated in three independent experiments, with each experiment performed in technical duplicate.
The preparation of samples for liquid chromatography-tandem mass spectrometry (LC-MS/MS) involved SPE. Stock solutions of E1 and 17β-estradiol (E2; CAS: 50-28-2; #142406, Steraloids) were prepared gravimetrically and dissolved in methanol (#34966, Honeywell/Riedel-de Haen). A working calibrator solution containing both steroids was then prepared by mixing appropriate volumes of the stock solutions in methanol to achieve a final concentration of 1 µg/mL for each steroid. Eight-point calibration curves (excluding zero and blank) were prepared in 100 mM sodium phosphate buffer (pH 6.5). For each 1 mL reaction mixture or calibrator, 10 µL of 100 ng/mL internal standard solution containing [2,3,4-13C3]-17β-estradiol (#719552, Sigma Aldrich) was added. Samples were mixed thoroughly and incubated at room temperature for 15 minutes.
SPE was performed using Strata X 33 µm polymeric reversed-phase columns (30 mg/mL tubes; #8B-S100-TAK, Phenomenex). The procedure involved the following steps: column conditioning with 1 mL of methanol, column equilibration with 1 mL of H₂O (#1.15333, Supelco), sample loading (1 mL sample or calibrator), column washing with 1 mL of H₂O, column drying under high vacuum for 10 minutes, and finally elution with 1 mL of methanol directly into HPLC glass vials (#702713, Macherey-Nagel GmbH/Co). The eluted samples were stored at -20 °C until LC-MS/MS analysis.

Take `CCCCOC1(c2cc(=O)c3c(Oc4ccccc4)cc(O)cc3o2)C=CC(=O)C=C1` [17a, 2-(1-Butoxy-4-oxocyclohexa-2,5-dienyl)-7-hydroxy-5-phenoxy-chromen-4-one]: the inhibition at 10 µM came to 93.1% in assay [1] (Homo sapiens, 72 h); 98.1% in assay [2] (Homo sapiens, C-33-A); 93.6% in assay [3] (Homo sapiens, HeLa); 95.7% in assay [4] (Homo sapiens, 72 h); 94.2% in assay [5] (Mus musculus, 72 h); 86.2% in assay [6] (Homo sapiens, SiHa). In addition, the inhibition at 30 µM in assay [1] (Homo sapiens, 72 h) is 93.7%; in assay [2] (Homo sapiens, C-33-A), 98.5%; in assay [3] (Homo sapiens, HeLa), 94.3%; in assay [4] (Homo sapiens, 72 h), 96.9%; in assay [5] (Mus musculus, 72 h) it was 98.7%; in assay [6] (Homo sapiens, SiHa), 95%. For the same compound, the IC50 in assay [1] (Homo sapiens, MCF7, 72 h) was 0.97 µM; in assay [2] (Homo sapiens, C-33-A) it was 0.43 µM; in assay [3] (Homo sapiens, HeLa), 1.16 µM; in assay [4] (Homo sapiens, MDA-MB-231, 72 h), 0.72 µM; in assay [5] (Mus musculus, NIH3T3, 72 h), 2.33 µM; in assay [6] (Homo sapiens, SiHa) it was 1.29 µM.
For the compound `N.N.[Cl][Pt][Cl]` [Cisplatin, reference compound], the IC50 in assay [1] (72 h) is 5.8 µM; in assay [2], 3.7 µM; in assay [3], 12.4 µM; in assay [4] (72 h) it was 19.1 µM; in assay [5] (72 h) it was 4.7 µM; in assay [6], 7.8 µM.
With `C[C@@]12CC[C@@H]3c4c(cc(O)cc4-c4ccc(Br)cc4)CC[C@H]3[C@@H]1CCC2=O` [14b, 1-(4-bromophenyl)-3-hydroxy-13α-estra-1,3,5(10)-triene-17-one], the inhibition at 10 µM was 35.1% in assay [1] (Homo sapiens, 72 h); 28.7% in assay [2] (Homo sapiens, C-33-A); 26.5% in assay [3] (Homo sapiens, HeLa); < 10% in assay [4] (Homo sapiens, 72 h); 35.9 ± 8% in assay [7]; 16.1% in assay [5] (Mus musculus, 72 h). Moreover, in assay [6] (Homo sapiens, SiHa), the inhibition at 10 µM is < 10%. Also, the inhibition at 30 µM stood at 81.5% in assay [1] (Homo sapiens, 72 h); 57% in assay [2] (Homo sapiens, C-33-A); 71.6% in assay [3] (Homo sapiens, HeLa); 46.8% in assay [4] (Homo sapiens, 72 h); 41.7% in assay [5] (Mus musculus, 72 h); 59.7% in assay [6] (Homo sapiens, SiHa). Besides, the IC50 was 13.5 µM in assay [1] (Homo sapiens, MCF7, 72 h) and 17.5 µM in assay [3] (Homo sapiens, HeLa). For the same compound, the inhibition at 100 µM in assay [7] worked out at 76.6 ± 5.1%.
Regarding `CCCCOC1(c2cc(=O)c3c(Oc4ccc(Br)cc4)cc(O)cc3o2)C=CC(=O)C=C1` [17b, 5-(4-Bromophenoxy)-2-(1-butoxy-4-oxocyclohexa-2,5-dienyl)-7-hydroxy-chromen-4-one], the inhibition at 10 µM in assay [1] (Homo sapiens, 72 h) is 97.4%; in assay [2] (Homo sapiens, C-33-A), 97.7%; in assay [3] (Homo sapiens, HeLa), 97%; in assay [4] (Homo sapiens, 72 h), 97%; in assay [5] (Mus musculus, 72 h) it was 97.5%; in assay [6] (Homo sapiens, SiHa), 84.5%. The inhibition at 30 µM was 98.4% in assay [1] (Homo sapiens, 72 h); 97.8% in assay [2] (Homo sapiens, C-33-A); 97.7% in assay [3] (Homo sapiens, HeLa); 97.9% in assay [4] (Homo sapiens, 72 h); 98.6% in assay [5] (Mus musculus, 72 h); 93.8% in assay [6] (Homo sapiens, SiHa). Besides, the IC50 is 1.15 µM in assay [1] (Homo sapiens, MCF7, 72 h); 0.52 µM in assay [2] (Homo sapiens, C-33-A); 1.09 µM in assay [3] (Homo sapiens, HeLa); 0.73 µM in assay [4] (Homo sapiens, MDA-MB-231, 72 h); 1.61 µM in assay [5] (Mus musculus, NIH3T3, 72 h); 1.39 µM in assay [6] (Homo sapiens, SiHa).
Regarding `C[C@@]12CC[C@@H]3c4ccc(O)c(-c5ccccc5)c4CC[C@H]3[C@@H]1CCC2=O` [4-Ph, reference compound], in assay [7], the inhibition at 10 µM stood at 41.4 ± 0.2% and the inhibition at 100 µM was 52.1 ± 17.4%.
For `C[C@@]12CC[C@@H]3c4c(cc(OCc5cn(Cc6ccccc6)nn5)cc4-c4ccc(Br)cc4)CC[C@H]3[C@@H]1CCC2=O` [compound 16, 3-[{1-Benzyl-1H-1,2,3-triazol-4-yl}methoxy]-1-(4-bromophenyl)-13a-estra-1,3,5 (10)-trien-17-one], the inhibition at 10 µM in assay [1] (Homo sapiens, 72 h) is < 10%; in assay [2] (Homo sapiens, C-33-A), < 10%; in assay [3] (Homo sapiens, HeLa), 22.4%; in assay [4] (Homo sapiens, 72 h) it was < 10%; in assay [5] (Mus musculus, 72 h), < 10%; in assay [6] (Homo sapiens, SiHa) it was < 10%. The inhibition at 30 µM in assay [1] (Homo sapiens, 72 h) was < 10%; in assay [2] (Homo sapiens, C-33-A), < 10%; in assay [3] (Homo sapiens, HeLa) it was 33.1%; in assay [4] (Homo sapiens, 72 h), < 10%; in assay [5] (Mus musculus, 72 h), 11.2%; in assay [6] (Homo sapiens, SiHa) it was 10.4%.
Turning to `C[C@]12CC[C@H]3C(=CCc4cc(O)ccc43)[C@@H]1CCC2=O` [Equilin, reference compound], the inhibition at 10 µM in assay [7] was 85.9 ± 1.6%.
Turning to `C[C@@]12CC[C@@H]3c4cc(-c5ccccc5)c(O)cc4CC[C@H]3[C@@H]1CCC2=O` [2-Ph], in assay [7], the inhibition at 10 µM worked out at 54 ± 7.8% and the inhibition at 100 µM is 59.4 ± 7.8%.

For orientation: inhibition means the share of the control response that was lost under treatment.
